Measured values reported in paper PMC8757611, “Synthesis, biological evaluation, and molecular docking of new series of antitumor and apoptosis inducers designed as VEGFR-2 inhibitors” (Journal of Enzyme Inhibition and Medicinal Chemistry, 2022).

Assays:
[1] = test system: VEGFR-2; set-up: method as in PMID 22153662; settings: cited from earlier work
[2] = test system: HepG2; assay: In vitro antitumor MTT assay, HepG2; assay type: cell-based, human; settings: for IC50: Homo sapiens, HepG2, MTT, mean ± S.D. of three experiments
Description: (§1) The antitumor assay was performed against the human cancer cell lines: HepG2, PC3, and MCF-7. The chemicals used in this test were supplied by Sigma-Aldrich with high analytical grade. National Cancer Institute (Cairo, Egypt) was the supplier of the cell lines tested which originally obtained from American Type Culture Collection (ATCC). MTT protocol was applied to quantitatively measure the antiproliferative activity of the new derivatives. In this test, the colour change is attributed to that the yellow tetrazolium bromide (MTT) is converted to formazan derivative which has purple colour. This biochemical reaction occurs only in viable cells by mitochondrial succinate dehydrogenase. The tested cells were initially cultured in RPMI-1640 medium with foetal bovine serum (10%). To the incubated cell, streptomycin (100 µg/mL) and penicillin (100 units/mL) were added in a 5% CO2 incubator at 37 °C. Then seeding of the cells was performed in a 96-well plate under 5% CO2 and at density of 1.0 × 10^4 cells/well at 37 °C for 48 h. Various non-toxic concentrations of the tested candidates were added and the cells were then incubated for further 24 h to the cells treated with the new compounds, MTT solution (20 µL at 5 mg/mL) was added, followed by 4 h incubation. One hundred microlitres of Dimethyl sulfoxide (DMSO) were added into each well to dissolve the purple formazan formed which is colorimetrically absorbed at 570 nm using a plate reader (EXL 800, USA). Finally, the percentages of cell viability was obtained as (A570 of treated samples/A570 of untreated sample) × 100.

[3] = test system: PC3; assay: In vitro antitumor MTT assay, PC3; assay type: cell-based, human; settings: for IC50: Homo sapiens, PC-3, MTT, mean ± S.D. of three experiments
Description: as §1

[4] = test system: MCF-7; assay: In vitro antitumor MTT assay, MCF-7; assay type: cell-based, human; settings: for IC50: Homo sapiens, MCF7, MTT, mean ± S.D. of three experiments
Description: as §1

[5] = test system: WI-38; assay: Cytotoxicity against normal lung fibroblasts (MTT); assay type: cell-based; settings: normal human lung fibroblasts
Description: as §1
Of note, the cytotoxicity against normal human lung fibroblasts cell line (WI-38) were examined for the nine selected compounds.

[6] = biological target: T1, VEGFR-2 kinase (Homo sapiens, UniProt P35968); assay: VEGFR-2 inhibition testing (ELISA kit); assay type: biochemical
T1 construct: purchased
Description: Enzyme linked immunosorbent assay (ELISA) technique was applied to human VEGFR-2 ELISA kit to calculate IC50 of all new derivatives against VEGFR-2 kinase. The antibody specific to the enzyme was planted on a 96 well microplate to which different micromolar concentrations of the positive control and the new compounds was added. […] Finally, stop solution (50 µL) was added and the reading was immediately determined at 450 nm. To get the standard curve, the concentrations used were presented on the X-axis and the corresponding absorbances were on the Y-axis.

[7] = test system: human cancer cell lines HepG2, PC3, MCF-7; assay: In vitro antitumor MTT assay, panel of HepG2, PC3 and MCF-7; assay type: cell-based; settings: range over HepG2, PC3 and MCF-7, read-out: IC50 against human cancer cell lines
Description: as §1

[8] = biological target: FGFR; assay: Multi-kinase assay (HTRF), FGFR; assay type: biochemical
Description: (§2) Different kinases and ATP were obtained from Sigma. The specified kinase and its substrate was incubated with compound for 5 min in buffer solution to start the enzymatic reaction; ATP was then added to the reaction mixture and was maintained for 30 min at room temperature.

[9] = biological target: T2, HER2 (Homo sapiens, UniProt P04626); assay: Multi-kinase assay (HTRF), HER2; assay type: biochemical
T2 construct: purchased Sigma
Description: as §2

[10] = test system: P53; assay: Apoptotic marker level in HepG2, p53; assay type: cell-based, human; settings: HepG2, at IC50, 24 h; control 42.84
Description: (§3) HepG2 cells were cultured and treated with compound 15d for 24 h. after that cells were collected and washed with PBS, then were collected and lysed by adding it to the extraction buffer containing protease inhibitors (1 ml per 1 × 10^6 cells.) then the lysate was diluted immediately before the assay. Caspase-3, BAX, Bcl-2, and p53 level was measured by using Quantikine-Human active kits (R&D Systems, Inc. Minneapolis, USA) according to the manufacturer protocols.

[11] = test system: HepG2; assay: Effect on apoptosis rate of HepG2 (Annexin V-FITC/PI); assay type: cell-based, human
Description: Apoptosis ratio of HepG2 treated with 9.6 µg of compound 15d in comparison with untreated HepG2 cells was calculated according to the reported method using Annexin V fluorescein isothiocyanate (V-FITC)/PI kit[36].

[12] = test system: Caspase-3; assay: Apoptotic marker level in HepG2, Caspase-3; assay type: cell-based, human; settings: HepG2, at IC50, 24 h; control 49.6274
Description: as §3

[13] = test system: HepG2; assay: Effect on cell cycle of HepG2 (PI flow cytometry); assay type: cell-based, human; settings: at its IC50
Description: The protocol reported by Wang et al.[35] was followed to determine the effect of 15d on cell cycle of HepG2. The cancer cells (2 × 10^5 cells) were seeded and incubated in each of six-well plates for 24 h. The cells were further incubated at 37 °C and 5% CO2 after addition of foetal bovine serum (FBS, 10%). The medium was replaced by DMSO solution (1% v/v) in which 9.6 µg of compound 15d was dissolved. Well plates were then incubated for 48 h and then rinsed with cold phosphate-buffered saline (PBS), fixed with ethanol (70%) and washed again with PBS. DNA fluorochrome propidium iodide (PI) was used to stain the cells which were then kept for 15 min at 37 °C. FACS Calibre flow cytometer was used to analyse the samples.

[14] = test system: BAX; assay: Apoptotic marker level in HepG2, BAX; assay type: cell-based, human; settings: HepG2, at IC50, 24 h; control 40.62
Description: as §3

[15] = test system: Bcl-2; assay: Apoptotic marker level in HepG2, Bcl-2; assay type: cell-based, human; settings: HepG2, at IC50, 24 h; control 5.761
Description: as §3

T1 sequence (P35968 20-1356): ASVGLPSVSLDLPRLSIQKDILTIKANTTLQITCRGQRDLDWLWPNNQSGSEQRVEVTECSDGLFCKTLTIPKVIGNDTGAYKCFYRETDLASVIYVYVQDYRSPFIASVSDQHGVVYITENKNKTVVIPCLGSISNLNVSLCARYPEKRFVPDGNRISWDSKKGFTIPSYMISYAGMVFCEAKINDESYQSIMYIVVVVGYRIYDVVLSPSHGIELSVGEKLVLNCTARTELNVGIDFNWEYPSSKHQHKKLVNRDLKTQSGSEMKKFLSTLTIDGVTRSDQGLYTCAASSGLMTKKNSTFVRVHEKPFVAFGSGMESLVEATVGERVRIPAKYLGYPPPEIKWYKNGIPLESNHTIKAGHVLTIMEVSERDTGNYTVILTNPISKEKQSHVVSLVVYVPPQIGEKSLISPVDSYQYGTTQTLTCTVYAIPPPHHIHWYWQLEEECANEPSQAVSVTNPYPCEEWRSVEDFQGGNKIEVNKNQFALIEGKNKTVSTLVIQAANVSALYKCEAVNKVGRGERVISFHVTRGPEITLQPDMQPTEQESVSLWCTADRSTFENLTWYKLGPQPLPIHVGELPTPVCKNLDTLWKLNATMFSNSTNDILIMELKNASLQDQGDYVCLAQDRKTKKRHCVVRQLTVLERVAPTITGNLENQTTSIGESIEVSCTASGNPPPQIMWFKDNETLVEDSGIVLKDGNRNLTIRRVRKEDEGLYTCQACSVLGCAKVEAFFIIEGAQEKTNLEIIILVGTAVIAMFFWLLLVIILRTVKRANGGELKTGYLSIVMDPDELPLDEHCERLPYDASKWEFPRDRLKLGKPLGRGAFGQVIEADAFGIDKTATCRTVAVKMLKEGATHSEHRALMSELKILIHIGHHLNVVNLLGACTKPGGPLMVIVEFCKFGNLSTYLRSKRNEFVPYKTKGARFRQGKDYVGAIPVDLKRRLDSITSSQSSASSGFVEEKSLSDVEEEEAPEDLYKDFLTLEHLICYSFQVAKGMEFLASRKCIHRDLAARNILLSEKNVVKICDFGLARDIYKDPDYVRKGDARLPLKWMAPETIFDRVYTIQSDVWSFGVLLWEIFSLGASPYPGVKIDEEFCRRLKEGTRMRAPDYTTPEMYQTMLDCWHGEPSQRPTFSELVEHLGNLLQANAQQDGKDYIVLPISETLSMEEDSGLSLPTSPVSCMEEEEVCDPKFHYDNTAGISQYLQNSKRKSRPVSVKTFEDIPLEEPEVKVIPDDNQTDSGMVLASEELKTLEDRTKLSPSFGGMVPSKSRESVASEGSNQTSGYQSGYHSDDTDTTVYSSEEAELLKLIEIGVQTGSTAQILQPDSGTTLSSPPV
T2 sequence (P04626 23-1255): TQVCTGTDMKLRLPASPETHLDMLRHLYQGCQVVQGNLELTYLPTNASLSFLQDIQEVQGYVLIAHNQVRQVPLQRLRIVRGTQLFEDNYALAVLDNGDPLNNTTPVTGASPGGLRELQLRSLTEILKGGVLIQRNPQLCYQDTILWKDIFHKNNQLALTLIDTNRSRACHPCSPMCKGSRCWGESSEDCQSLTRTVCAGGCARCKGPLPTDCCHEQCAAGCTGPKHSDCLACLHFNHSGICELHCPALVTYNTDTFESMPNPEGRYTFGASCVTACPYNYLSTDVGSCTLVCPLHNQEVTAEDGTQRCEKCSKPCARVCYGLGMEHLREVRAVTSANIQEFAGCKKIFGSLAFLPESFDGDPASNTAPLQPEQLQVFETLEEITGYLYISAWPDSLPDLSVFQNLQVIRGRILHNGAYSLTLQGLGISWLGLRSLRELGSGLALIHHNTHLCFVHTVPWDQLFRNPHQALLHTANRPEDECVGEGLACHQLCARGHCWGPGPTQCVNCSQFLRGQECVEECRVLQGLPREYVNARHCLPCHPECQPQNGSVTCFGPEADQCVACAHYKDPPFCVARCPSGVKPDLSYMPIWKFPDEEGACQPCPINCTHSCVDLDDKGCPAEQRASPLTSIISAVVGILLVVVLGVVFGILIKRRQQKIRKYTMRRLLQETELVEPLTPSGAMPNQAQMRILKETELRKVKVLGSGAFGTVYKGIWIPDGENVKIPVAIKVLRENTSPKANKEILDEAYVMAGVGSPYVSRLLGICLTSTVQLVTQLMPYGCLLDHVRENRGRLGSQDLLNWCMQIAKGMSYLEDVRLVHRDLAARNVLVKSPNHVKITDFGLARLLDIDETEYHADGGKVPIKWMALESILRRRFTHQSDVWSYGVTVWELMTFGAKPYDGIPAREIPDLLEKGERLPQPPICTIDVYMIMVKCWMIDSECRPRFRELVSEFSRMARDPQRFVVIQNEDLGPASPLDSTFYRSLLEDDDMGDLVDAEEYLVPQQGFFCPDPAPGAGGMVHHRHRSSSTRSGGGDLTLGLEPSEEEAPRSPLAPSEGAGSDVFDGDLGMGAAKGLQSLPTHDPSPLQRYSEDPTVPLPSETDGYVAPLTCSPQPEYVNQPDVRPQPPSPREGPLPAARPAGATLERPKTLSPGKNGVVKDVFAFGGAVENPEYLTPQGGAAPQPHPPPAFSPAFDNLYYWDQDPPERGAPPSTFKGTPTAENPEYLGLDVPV

SMILES	IC50 [2] [µM]	IC50 [3] [µM]	IC50 [4] [µM]	IC50 [5] [µM]	melting point [°C]	IC50 [6] [µM]	IC50 [7] [µM]	other results
O=C(Nc1ccccc1)Nc1ccc(Oc2nc(Cl)nc3ccccc23)cc1 [Compound 14a, 1-(4-((2-Chloroquinazolin-4-yl)oxy)phenyl)-3-phenylurea]	41.5 ± 3.6	50.7 ± 4.36	58.3 ± 4.87	235 ± 2.43	236 to 237	0.0671 ± 0.00107	–	–
CCCCNC(=O)Nc1ccc(Oc2nc(Cl)nc3ccccc23)cc1 [Compound 14b, 1-Butyl-3-(4-((2-chloroquinazolin-4-yl)oxy)phenyl)urea]	–	–	–	–	214 to 215	0.0942 ± 0.00153	–	–
O=C(Nc1ccc(Oc2nc(Cl)nc3ccccc23)cc1)c1ccccc1 [Compound 15a, N-(4-((2-Chloroquinazolin-4-yl)oxy)phenyl)benzamide]	34.6 ± 2.82	30.3 ± 2.56	47.1 ± 3.59	250 ± 2.51	244 to 245	0.0673 ± 0.00154	17.4 to 47.1	–
O=C(Nc1ccc(Oc2nc(Cl)nc3ccccc23)cc1)c1ccc(Cl)cc1 [Compound 15b, 4-Chloro-N-(4-((2-chloroquinazolin-4-yl)oxy)phenyl)benzamide]	17.4 ± 1.54	25.6 ± 2.31	19.9 ± 1.79	233 ± 2.39	249 to 250	0.0864 ± 0.00176	17.4 to 47.1	potency relative to sorafenib potency, HepG2 ([2]; fraction of sorafenib potency): 0.74; potency relative to sorafenib potency, PC3 ([3]; fraction of sorafenib potency): 0.76; potency relative to sorafenib potency, MCF-7 ([4]; fraction of sorafenib potency): 0.73
O=C(Nc1ccc(Oc2nc(Cl)nc3ccccc23)cc1)c1cccc(Cl)c1 [Compound 15c, 3-Chloro-N-(4-((2-chloroquinazolin-4-yl)oxy)phenyl)benzamide]	50.4 ± 4.39	56 ± 1.9	62.7 ± 5.12	236 ± 2.39	229 to 230	0.0652 ± 0.00136	–	–
O=C(Nc1ccc(Oc2nc(Cl)nc3ccccc23)cc1)c1cccnc1 [Compound 15d, N-(4-((2-Chloroquinazolin-4-yl)oxy)phenyl)nicotinamide]	24.1 ± 2.12	40.9 ± 3.46	33.4 ± 2.92	221 ± 2.55	–	0.06 ± 0.00145	17.4 to 47.1	IC50 [8]: 0.381 ± 0.0018 µM; IC50 [9]: 0.253 ± 0.0016 µM; P53 level [10]: 415.027 pg/mL; % Apoptosis Late ([11]; HepG2, at IC50, control 0.33): 7.13%; % Apoptosis Early ([11]; HepG2, at IC50, control 0.87): 5.33%; % Necrosis ([11]; HepG2, at IC50, control 1.17): 2.35%; Total (apoptosis and necrosis) ([11]; HepG2, at IC50, control 2.37): 14.81%; fold increase in apoptosis of HepG2 ([11]; at IC50, versus control): 10 folds; apoptosis rate of HepG2 ([11]; at IC50, control […]): 12.46%; Casp3 level [12]: 561.427 pg/mL; cell cycle phases in which growth of HepG2 is stopped [13]: both G2/M and pre G1 phases; BAX level [14]: 395.04 pg/mL; Bcl-2 level [15]: 1.385 pg/mL
O=C(Nc1ccccc1)Nc1ccc(Oc2nc3ccccc3nc2Cl)cc1 [Compound 19a, 1-(4-((3-Chloroquinoxalin-2-yl)oxy)phenyl)-3-phenylurea]	–	–	–	–	248 to 249	0.0936 ± 0.00182	–	–
CCCCNC(=O)Nc1ccc(Oc2nc3ccccc3nc2Cl)cc1 [Compound 19b, 1-Butyl-3-(4-((3-chloroquinoxalin-2-yl)oxy)phenyl)urea]	73.4 ± 5.95	84.4 ± 6.68	105 ± 7.57	230 ± 2.51	227 to 228	0.0752 ± 0.00157	–	–
O=C(Nc1ccc(Oc2nc3ccccc3nc2Cl)cc1)c1ccccc1 [Compound 20a, N-(4-((3-Chloroquinoxalin-2-yl)oxy)phenyl)benzamide]	–	–	–	–	258 to 259	0.108 ± 0.00225	–	–
